Results reported in patent US20100120778A1, “QUINOXALINE-BASED LXR MODULATORS” (Wyeth, priority 2008, published 2010).

Each compound was assayed against T1, human LXRβ (Homo sapiens, UniProt P55055) (assay: Ligand-binding test procedure for human LXRβ (3H T0901317 tracer, flash plates)). Conditions: biotinylated hLXRβ, tracer 3H T0901317, +4° C. over night.
T1 construct: biotin (biotinylated); made in house; host or cells: E. coli
T1 sequence (P55055 1-460): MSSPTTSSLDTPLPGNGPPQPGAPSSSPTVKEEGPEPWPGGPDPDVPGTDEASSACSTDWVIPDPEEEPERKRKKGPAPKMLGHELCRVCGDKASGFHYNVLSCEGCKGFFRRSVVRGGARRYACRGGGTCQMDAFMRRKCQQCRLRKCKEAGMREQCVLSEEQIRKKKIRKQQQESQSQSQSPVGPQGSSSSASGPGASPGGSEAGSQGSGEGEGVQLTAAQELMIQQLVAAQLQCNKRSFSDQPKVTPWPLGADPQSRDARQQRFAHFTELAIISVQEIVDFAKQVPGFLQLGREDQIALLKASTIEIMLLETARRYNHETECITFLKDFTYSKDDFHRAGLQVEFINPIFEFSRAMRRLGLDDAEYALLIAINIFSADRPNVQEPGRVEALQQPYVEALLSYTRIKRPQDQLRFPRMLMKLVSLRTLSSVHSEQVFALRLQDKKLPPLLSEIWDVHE
Description: I. Ligand-Binding Test Procedure for Human LXRβ.
Receptor source: E. coli extracted from cells expressing biotinylated hLXRβ. Extract was made in a similar buffer as above, but with 50 mM TRIS.
Washed streptavidin and coated flash plates with wash buffer. Diluted receptor extract to give Bmax˜4000 cpm and add to the wells. Wrapped the plates in aluminum foil and stored them at +4° C. overnight.
Made a dilution series in DMSO of the test ligands. Made a 5 nM solution of the radioactive tracer in buffer. Mixed 250 μl diluted tracer with 5 μl of the test ligand from each concentration of the dilution series. Washed the receptor-coated flash plates. Added 200 μl per well of the ligand/radiolabel mixture to the receptor-coated flash plates. Wrapped the plates in aluminum foil and incubate at +4° C. over night.
Aspirated wells, and washed the flashed plates. Sealed the plate.
Measured the remaining radioactivity in the plate.

IC50 [nM] | Structure (SMILES)
> 1000 | Cc1nc2c(C(F)(F)F)cccc2nc1-c1ccc(-c2ccccc2S(C)(=O)=O)cc1 [Example 21, 3-methyl-2-[2′-(methylsulfonyl)biphenyl-4-yl]-5-(trifluoromethyl)quinoxaline]
> 1000 | Cc1nc2c(C(F)(F)F)cccc2nc1-c1ccc(-c2ccc(C(=O)N3CCCC3)cc2)cc1 [Example 54, 3-methyl-2-[4′-(pyrrolidin-1-ylcarbonyl)biphenyl-4-yl]-5-(trifluoromethyl)quinoxaline]
> 1000 | CS(=O)(=O)c1cccc(Oc2ccc(-c3nc4ccccc4nc3C(F)(F)F)cc2)c1 [Example 27, 2-{4-[3-(methylsulfonyl)phenoxy]phenyl}-3-(trifluoromethyl)quinoxaline]
> 1000 | Cc1nc2cccc(C(F)(F)F)c2nc1-c1ccc(Oc2cccc(S(C)(=O)=O)c2)cc1F [Example 29, 3-{2-fluoro-4-[3-(methylsulfonyl)phenoxy]phenyl}-2-methyl-5-(trifluoromethyl)quinoxaline]
> 1000 | CS(=O)(=O)c1cccc(-c2ccc(-c3cnc4cccc(C(F)(F)F)c4n3)cc2)c1 [Example 25, 2-[3′-(methylsulfonyl)biphenyl-4-yl]-8-(trifluoromethyl)quinoxaline]
353 | CCc1nc2cccc(C(F)(F)F)c2nc1-c1ccc(-c2cccc(S(C)(=O)=O)c2)cc1 [Example 34, 2-ethyl-3-[3′-(methylsulfonyl)biphenyl-4-yl]-5-(trifluoromethyl)quinoxaline]
640 | CNS(=O)(=O)c1cccc(-c2cccc(Oc3cnc4c(Cl)cccc4n3)c2)c1 [Example 84, 3′-[(5-Chloroquinoxalin-2-yl)oxy]-N-methylbiphenyl-3-sulfonamide]

Second part, the compound before the results:

Structure (SMILES) | IC50 [nM]
Cc1nc2c(C(F)(F)F)cccc2nc1-c1ccc(-c2ccc(S(C)(=O)=O)cc2)cc1 [Example 18, 3-methyl-2-[4′-(methylsulfonyl)biphenyl-4-yl]-5-(trifluoromethyl)quinoxaline] | > 1000
CNC(=O)c1cccc(-c2ccc(-c3nc4cccc(C(F)(F)F)c4nc3C)cc2)c1 [Example 52, N-methyl-4′-[3-methyl-5-(trifluoromethyl)quinoxalin-2-yl]biphenyl-3-carboxamide] | > 1000
Cc1nc2c(Cl)cccc2nc1Oc1cccc(-c2cccc(NS(C)(=O)=O)c2)c1 [Example 90, N-{3′-[(5-chloro-3-methylquinoxalin-2-yl)oxy]biphenyl-3-yl}methanesulfonamide] | > 1000
Cc1nc2c(C(F)(F)F)cccc2nc1-c1cc(Oc2cccc(S(=O)(=O)CCCN)c2)ccc1Cl [Example 45, 3-[(3-{4-chloro-3-[3-methyl-5-(trifluoromethyl)quinoxalin-2-yl]phenoxy}phenyl)sulfonyl]-propan-1-amine] | 63
Cc1nc2cccc(C(F)(F)F)c2nc1-c1cc(Oc2ccc(S(=O)(=O)CC#N)cc2)ccc1Cl [Example 38, [(4-{4-chloro-3-[3-methyl-8-(trifluoromethyl)quinoxalin-2-yl]phenoxy}phenyl)sulfonyl]-acetonitrile] | > 1000
Cc1nc2c(Cl)cccc2nc1Oc1ccc(-c2cccc(S(N)(=O)=O)c2)cc1 [Example 92, 4′-[(5-chloro-3-methylquinoxalin-2-yl)oxy]biphenyl-3-sulfonamide] | 2470
Cc1nc2c(C(F)(F)F)cccc2nc1-c1cccc(-c2cccc(S(C)(=O)=O)c2)c1 [Example 19, 3-methyl-2-[3′-(methylsulfonyl)biphenyl-3-yl]-5-(trifluoromethyl)quinoxaline] | > 1000
Cc1nc2cccc(C(F)(F)F)c2nc1-c1cc(Oc2ccccc2S(C)(=O)=O)ccc1Cl [Example 44, 3-{2-chloro-5-[2-(methylsulfonyl)phenoxy]phenyl}-2-methyl-5-(trifluoromethyl)quinoxaline] | > 1000
